Here are results for three compounds from patent publication US20100086529A1, “METHODS OF MAKING CONCENTRATED FIBRINOGEN- AND PLATELET-CONTAINING COMPOSITIONS” (priority 2008, published 2010).

The nature of series [1]: Adhesion strength of fibrin clots between strips of aortic tissue (Instron). The following applies: 15 mg/mL fibrinogen concentrate, calcium chloride 1.8 to 100 mM tested.
Description: The adhesive strength of fibrin clots is tested. The adhesion strength of the fibrin glue is assessed by sandwiching the fibrin glue between two strips of aortic tissue and then pulling them apart, simulating the performance of the sealant bonding to tissue. Bovine aorta is prepared by slitting the aorta lengthwise and laying it flat. The aorta is then cut into smaller strips, each approximately 3 cm long and 1 cm wide. […] Sealant is applied (0.1 mL), covering an area of approximately 1 cm^2, to the exposed media as shown. An overlapping joint is formed (approximately one-third the length of each strip) and allowed to “cure” while held in place with a 100 g weight for 30 minutes at 22° C. The non-overlapping ends of the cured samples are clamped in an Instron Model 1120 Universal Testing Instrument (max load 500 g), and a stress-strain curve is recorded while the sample is strained at 100 mm/min until the overlapping (glued) joint failed. Adhesion strength is taken as the maximum stress sustained divided by the joint area (indicated by the glue still visible after the joint failed and measured with a digital caliper).
The effect of cure time on tensile strength and adhesion strength is evaluated by allowing the molded clots and the glued aortic strips (described in Example 9) to cure for 1, 5, 10, 15, 30, and 60 minutes at 22° C. […]
Series [2] can be described thus: Tensile strength of fibrin clots (dog-bone mold, Instron). To be noted: 15 mg/mL fibrinogen concentrate, calcium chloride 1.8 to 100 mM tested.
Description: The tensile strength of fibrin clots is tested. […] The narrow neck provided the weakest point where the clot would break; the force at which the clot breaks serves as an indication of its tensile strength.
Test samples are prepared by simultaneously emptying syringes of fibrinogen and thrombin into a common duct where the mixture entered the mold through the sponge on one end and exited through the sponge on the other end. […] After the sample is given time to “cure,” (30 minutes unless various cure times were being tested), the plexiglass mold is dissembled, and the clot is transferred to an Instron Model 1120 Universal Testing Instrument (Instron Corp., Norwood, Mass., max load 500 g) where it is held on the ends via the sponge “grips”. A stress-strain curve is recorded while the sample is strained at 100 mm/min until it ruptured. The tensile strength is recorded as the maximum stress sustained.
Samples are prepared from a 15 mg/mL pure fibrinogen concentrate (as prepared in Example 4) as follows:
The effect of cure time on tensile strength and adhesion strength is evaluated by allowing the molded clots and the glued aortic strips (described in Example 9) to cure for 1, 5, 10, 15, 30, and 60 minutes at 22° C.
Controls of pooled human plasma (fibrinogen concentration ˜3 mg/mL), pure fibrinogen (15 mg/mL), and Tisseel (average fibrinogen concentration ˜95 mg/mL) are used. […]
The target of series [3] is T1, fibrinogen (Homo sapiens, UniProt P02671+P02675+P02679).
T1 construct: Fibrinogen is precipitated from pooled human plasma by addition of protamine sulfate; from tissue; host or cells: human blood plasma (pooled human plasma / platelet-poor plasma of healthy adult donors)
T1 sequence (P02671 20-629 limits assumed): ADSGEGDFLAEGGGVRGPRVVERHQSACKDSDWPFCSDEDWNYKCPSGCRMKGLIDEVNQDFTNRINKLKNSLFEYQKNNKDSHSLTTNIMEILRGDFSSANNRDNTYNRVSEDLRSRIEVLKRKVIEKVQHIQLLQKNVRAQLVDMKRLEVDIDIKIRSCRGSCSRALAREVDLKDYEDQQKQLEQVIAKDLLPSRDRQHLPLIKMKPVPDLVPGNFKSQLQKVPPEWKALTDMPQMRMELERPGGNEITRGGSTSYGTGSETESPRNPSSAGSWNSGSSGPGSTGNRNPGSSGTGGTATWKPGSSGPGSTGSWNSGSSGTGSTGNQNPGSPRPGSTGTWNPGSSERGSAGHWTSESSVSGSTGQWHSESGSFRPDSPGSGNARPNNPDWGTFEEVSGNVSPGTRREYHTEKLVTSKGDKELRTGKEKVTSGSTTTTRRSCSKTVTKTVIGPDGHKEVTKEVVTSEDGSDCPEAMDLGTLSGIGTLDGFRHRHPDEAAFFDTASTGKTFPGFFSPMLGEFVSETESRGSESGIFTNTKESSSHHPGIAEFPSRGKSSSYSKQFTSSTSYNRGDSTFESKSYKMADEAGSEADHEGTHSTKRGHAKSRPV
T1 sequence (P02675 31-491): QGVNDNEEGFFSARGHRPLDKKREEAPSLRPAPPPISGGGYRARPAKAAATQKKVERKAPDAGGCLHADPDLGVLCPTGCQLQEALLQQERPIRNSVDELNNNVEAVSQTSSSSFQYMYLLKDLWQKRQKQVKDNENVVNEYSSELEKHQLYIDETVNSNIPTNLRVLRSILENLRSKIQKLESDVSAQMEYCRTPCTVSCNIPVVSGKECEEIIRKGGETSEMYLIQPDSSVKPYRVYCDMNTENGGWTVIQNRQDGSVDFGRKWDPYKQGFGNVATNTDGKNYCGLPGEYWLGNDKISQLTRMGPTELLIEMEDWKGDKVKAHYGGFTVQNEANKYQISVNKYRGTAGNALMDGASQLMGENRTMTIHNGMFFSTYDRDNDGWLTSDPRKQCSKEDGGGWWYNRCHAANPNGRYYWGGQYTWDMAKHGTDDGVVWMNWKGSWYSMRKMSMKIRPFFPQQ
T1 sequence (P02679 27-453): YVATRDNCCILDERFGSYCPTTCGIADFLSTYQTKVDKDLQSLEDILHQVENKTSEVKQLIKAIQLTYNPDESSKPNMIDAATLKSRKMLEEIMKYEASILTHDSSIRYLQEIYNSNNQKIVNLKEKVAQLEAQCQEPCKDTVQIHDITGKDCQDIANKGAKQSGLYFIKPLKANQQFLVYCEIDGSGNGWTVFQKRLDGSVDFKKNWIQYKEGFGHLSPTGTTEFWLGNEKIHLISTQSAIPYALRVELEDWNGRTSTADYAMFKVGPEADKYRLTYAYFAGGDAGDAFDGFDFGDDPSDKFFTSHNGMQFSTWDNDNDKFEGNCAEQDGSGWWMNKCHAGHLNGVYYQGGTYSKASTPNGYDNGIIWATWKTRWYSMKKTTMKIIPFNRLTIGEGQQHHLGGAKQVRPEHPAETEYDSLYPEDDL
The experiment in a line: Fibrinogen precipitation from plasma by protamine (recovery in the concentrate, ELISA / Clauss method). The following applies: n=4. Here is the method:
Fibrinogen is precipitated from pooled human plasma by addition of protamine sulfate (Sigma Chemical Co.). The protamine sulfate is used to prepare a stock solution of 40 mg/mL. The protamine is then added to the plasma (final concentration=10 mg/mL), mixed, and then centrifuged at 1000 g for 5 min to sediment the precipitate. The plasma is then decanted, and the remaining precipitate is dissolved in 0.2 M sodium citrate (37° C., pH 7.4).
A concentrated fibrinogen solution is prepared as in Example 3. The fibrinogen and Factor XIII concentrations are evaluated with an enzyme-linked immunosorbent assay (ELISA; AssayPro LLC, Brooklyn, N.Y.). The color intensity of the developed ELISA plates is measured with a Dynex MRX microplate reader (Dynex Technologies, Chantilly, Va.) and compared to a standard curve.
The fibrinogen concentration in the plasma is measured with the Clauss method, where plasma samples are clotted in the presence of excess thrombin in a CoaData 2000 Fibrintimer (Labor GmbH, Hamburg, Germany). The clotting times are recorded, and the fibrinogen concentration is calculated from a standard curve. […]
Heparin is used clinically in most procedures requiring anticoagulation. Heparin is evaluated for its effect on fibrinogen and Factor XIII harvesting and subsequent clotting of harvested fibrinogen. […]

A short description of series [4]: Clottability of precipitated fibrinogen with bovine thrombin (ELISA of clot supernatant, by difference). In kind it is biochemical, human. The following applies: blood collected into heparin 2 U/mL. As for the experimental part:
The clottability of the recovered fibrinogen is evaluated as follows. A fibrinogen solution as prepared in Example 3 is prepared and used. To 1 mL of the fibrinogen solution 100 μL of bovine thrombin (Vital Products, Inc, Boynton Beach, Fla., 500 Units/mL) is added and the clot is allowed to stand for 30 minutes at 22° C. The clot is then centrifuged for 2 min at 3500 g and the supernatant removed. The amounts of fibrinogen present in the concentrated composition and in the clot supernatant are determined by ELISA, and the fibrinogen present in the clot is determined by difference. […] The amounts of fibrinogen and Factor XIII in the clot supernatant and in the concentrate can be measured with ELISA, and the amounts of fibrinogen and Factor XIII remaining in the clot can be determined by difference.

For the compound `[Ca+2].[Cl-].[Cl-]` [calcium chloride], the “calcium concentration giving maximum adhesion strength” value in series [1] was 3.6 to 100 mM. Besides, in series [2], the “calcium concentration giving maximum tensile strength” value was 8.9 to 50 mM.
protamine sulfate: the “fibrinogen in the plasma precipitated (maximum yield)” value in series [3] (blood collected into heparin 2 U/mL, protamine 11 mg/mL in plasma) is given as 95±1%. For the same compound, the “fibrinogen precipitated and recovered (percentage of fibrinogen in the original plasma)” value in series [3] (blood or plasma protamine concentration of 10 mg/mL) came to 96±4%.
Regarding heparin, the “change in clottability of fibrinogen when heparin is present” value in series [4] is reported as “no observed changes”.
